Values quoted from earlier work as cited in patent US8541630B2, “Process for producing dimethyl ether from methanol” (China Petroleum & Chemical Corporation, priority 2008, dated 2013).
Like-named read-outs stand apart in the source and are kept apart here.

COC [DME, Dimethyl ether]
Solubility (solvent Acetone (25° C.)): 11.83 wt % | Solubility (solvent Benzene (25° C.)): 15.29 wt % | Solubility (solvent CCl4 (25° C.)): 16.33 wt % | Solubility (solvent Chlorobenzene (106 kPa, 25° C.)): 18.56 wt % | Solubility (solvent Gasoline, 0° C.): 19 wt % | Solubility (solvent Gasoline, 25° C.): 7 wt % | Solubility (solvent Gasoline, −40° C.): 64 wt % | Solubility (solvent Methyl acetate (93.86 kPa, 25° C.)): 11.1 wt % | Solubility (solvent Water (24° C.)): 35.3 wt %
